The test system of the assay is 519858-162-T-J1-PDC complex spheroid viability. The assay can be described thus: Anticancer human tumor 519858-162-T-J1-PDC patient-derived colon adenocarcinoma cell line growth inhibition [GQUAD]. The conditions noted are these: for viability, T/C: stronger effect = lower value; for IC50: curve of compound. An excerpt: DNA G-quadruplex Stabilizer Agents in Combinations in Complex Spheroids
A high-throughput screen of multi-cell type tumor spheroids was designed to identify active combinations of DNA G-quadruplex stabilizer agents and targeted small molecules. Complex spheroids include a stromal component modeled by human endothelial cells (HUVEC) and fibroblasts modeled by human mesenchymal stem cells (MSCs). The concentration ranges selected for each drug and investigational agent were based upon clinically achievable concentrations if the clinical Cmax of the agent was known.
Compounds. The drugs and investigational agents: pidnarulex (CX-5461; NSC782164), APTO-253 (NSC789042), BRACO-19 (NSC847499), peposertib (NSC802822), ceralasertib (NSC780249), elimusertib (NSC800525), camonsertib (NSC841442), AZD-1390 (NSC803789), olaparib (NSC753686), talazoparib (NSC767125), ART-558 (NSC835418), sotorasib (NSC818433), MRTX-1133 (NSC836407), SN-38 (NSC673596), topotecan (NSC609699), etoposide (NSC141540), doxorubicin (NSC123127), gemcitabine (NSC613327), 5-fluorouracil (NSC19893), paclitaxel (NSC125973), vemurafenib (NSC761431), panobinostat (NSC761190), R-306465 (JNJ-16241199; NSC773264), adavosertib (NSC754352), TP-3654 (NSC805149), carboplatin (NSC241240), KSQ-4279 (NSC840948), and staurosporine (NSC755774) were obtained from the National Cancer Institute (NCI) Developmental Therapeutics Program Chemical Repository (34). The FDA-approved anticancer drug set is available from the NCI Developmental Therapeutics Program. […] The stock solutions were prepared in dimethyl sulfoxide (DMSO, Sigma-Aldrich, St. Louis, MO, cat. D2650) at 800-fold the tested concentration and stored at -70 degrees C prior to their use. All drugs and investigational agents were tested over a range starting from a high concentration at or near the clinical Cmax and decreasing in half-log increments. If the clinical Cmax for an agent had not been determined, the highest concentration tested was 10 microM.
2.3 Cell Culture. All cells were maintained in an incubator at 37 degrees C and 5% CO2 with 95% humidity. The PDC lines were cultured according to standard operating procedures established by the NCI PDMR. All PDCs were thawed and cultured in Matrigel-coated flasks prepared with a working solution of 1X Ham's F-12 nutrient mix, without supplementation (Invitrogen, cat. 11765054), 100 U/mL penicillin-streptomycin (Invitrogen, cat. 15140122), and 2.5% Matrigel (Corning Inc., cat. 354248) for the first three passages. The 857933-349-R-J2-PDC line was cultured in 6C/Colon 1B media, which includes advanced DMEM/F-12 (Thermo Fisher Scientific, cat. 12634028), 10 mM HEPES (Thermo Fisher Scientific, cat. 15630080), 1X GlutaMAX supplement (Thermo Fisher Scientific, cat. 35050061), 0.1 mg/mL primocin (InvivoGen, cat. ant-pm-2), 10% defined fetal bovine serum, heat inactivated (HyClone Laboratories Inc., cat. SH30070.03HI), 50% L-WRN conditioned media (ATCC, cat. CRL-3276), 1.25 mM N-Acetyl-L-cysteine (Sigma-Aldrich, cat. A9165), 10 mM nicotinamide (Sigma-Aldrich, cat. N0636), 1X B-27 supplement (Thermo Fisher Scientific, cat. 17504044), 1X N-2 supplement (Thermo Fisher Scientific, cat. 17502048), 10 microM Y-27632 dihydrochloride (Tocris Bioscience, cat. 1254), and 50 ng/mL human EGF recombinant protein (Thermo Fisher Scientific, cat. PHG0311). The 485176-168-R4-J1-PDC line was cultured in Panc media, which includes all 6C/Colon 1B media components plus 100 ng/mL human FGF-10 (Thermo Fisher Scientific, cat. 100-26), 500 nM SB-431542 (Selleckchem, cat. S1067), and gastrin (Tocris, cat. 3006).
[…]

Values joined by “and” are separate entries in the source; they are usually repeats but may differ in a detail not shown here. Equal entries are not always repeated. Bounds are passed on as bounds.
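Also: spheroids exposed to compounds for 7 days.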

In general, viability, T/C refers to the result in the treated group divided by that in the control group, in per cent. In general, IC50 refers to the concentration at which inhibition is half-maximal. For the compound `COc1ncnc(C2CC2)c1-c1ncc2cnn(Cc3ccc(-c4nc(C(F)(F)F)cn4C(C)C)cc3)c2n1`, the IC50 is over 10 µM. Also, the viability, T/C (compound 0.0316 µM) is 104% and 85.1%. Further, the viability, T/C (compound 0.1 µM) is 111% and 83.2%. Moreover, the viability, T/C (compound 0.316 µM) was 101% and 92.7%. Where the note is “compound 1 µM”, the viability, T/C is 119% and 75.2%. For the setting “compound 3.16 µM”, the viability, T/C is 95.7% and 89.8%. Also, the viability, T/C (compound 10 µM) was 83.2% and 81.7%.

On to `Cc1cnc(CNC(=O)c2c(=O)c3ccc(N4CCCN(C)CC4)nc3n3c2sc2ccccc23)cn1`, for which the viability, T/C is 69.1% [middle of 10 runs] (compound 1 µM) and 52.6% [middle of 10 runs] (compound 10 µM).

In the case of `Nc1ccn(C2OC(CO)C(O)C2(F)F)c(=O)n1` (centres undefined), the IC50 is over 10 µM. Moreover, the viability, T/C (compound 0.0316 µM) is 78.1%. Under “compound 0.1 µM”, the viability, T/C is 91.4%. The viability, T/C (compound 0.316 µM) is 92.2%. For the same compound, the viability, T/C (compound 1 µM) was 94.6%. Further, for the setting “compound 3.16 µM”, the viability, T/C was 96.3%. Moreover, the viability, T/C (compound 10 µM) was 79%.

On to `COc1ccc([C@@H](O)c2cc(-c3ncnc4cc(N5CCOCC5)ccc34)c(F)cc2Cl)nn1`, for which the IC50 is over 10 µM. In addition, where the note is “compound 0.0316 µM”, the viability, T/C is 103% and 120% and 90.1%. The viability, T/C (compound 0.1 µM) is 49.1% and 113% and 99.8%. Moreover, for the setting “compound 0.316 µM”, the viability, T/C is 76% and 95.2% and 69%. Besides, the viability, T/C (compound 1 µM) is 94% and 100% and 121%. The viability, T/C (compound 3.16 µM) was 82.1% and 102% and 73.5%. For the same compound, the viability, T/C (compound 10 µM) was 66.8% and 87.3% and 67.6%.

`COc1cc(C2c3cc4c(cc3C(OC3OC5COC(C)OC5C(O)C3O)C3COC(=O)C23)OCO4)cc(OC)c1O` (centres undefined): the IC50 is over 10 µM. For the same compound, the viability, T/C (compound 0.0316 µM) is 165% and 107% and 86%. The viability, T/C (compound 0.1 µM) is 90.6% and 89.7% and 81.6%. In addition, the viability, T/C (compound 0.316 µM) is 82.8% and 98% and 61.3%. Also, the viability, T/C (compound 1 µM) is 123% and 112% and 70.1%. Also, where the note is “compound 3.16 µM”, the viability, T/C is 75% and 96.2% and 89.7%. Besides, the viability, T/C (compound 10 µM) is 80.6% and 72.3% and 83.6%.

For the compound `CC1COCCN1c1cc(C2(O)CC3CCC(C2)O3)c2cnn(-c3ccn[nH]3)c2n1` (centres undefined), the IC50 was > 10 µM and 3.34 µM. Further, the viability, T/C (compound 0.0316 µM) was 109% and 94.9%. Moreover, the viability, T/C (compound 0.1 µM) is 107% and 101%. Also, under “compound 0.316 µM”, the viability, T/C was 89.3% and 63%. For the same compound, the viability, T/C (compound 1 µM) is 70.9% and 74%. Further, under “compound 3.16 µM”, the viability, T/C was 93.6% and 47.8%. Also, the viability, T/C (compound 10 µM) was 66.3% and 38%.

For `CCCS(=O)(=O)Nc1ccc(F)c(C(=O)c2c[nH]c3ncc(-c4ccc(Cl)cc4)cc23)c1F`, the IC50 is over 10 µM. In addition, for the setting “compound 0.0316 µM”, the viability, T/C is 88.3%. Moreover, the viability, T/C (compound 0.1 µM) is 112%. Further, the viability, T/C (compound 0.316 µM) is 114%. Moreover, for the setting “compound 1 µM”, the viability, T/C was 97.1%. Also, the viability, T/C (compound 3.16 µM) is 125%. Further, where the note is “compound 10 µM”, the viability, T/C is 103%.

The record behind these values is PubChem BioAssay AID2060507 (Molecular Pharmacology Branch, DTP, NCI, 2025).
